Our source for the remaining activity values is patent US20230131899A1, “INHIBITORS OF MICROBIALLY INDUCED AMYLOID” (Axial Therapeutics, Inc., priority 2020, published 2023).

SMILES strings stand for the structures. Like-named read-outs stand apart in the source and are kept apart here. Where only a bound is given, the exact number is not on record here.

In the test the target is T1, E. coli CsgA (Escherichia coli, UniProt P28307).
T1 construct: made in house; host or cells: E. coli NEB 3016 slyD::kan, pET11d
Description: In vitro ThioflavinT assay of CsgA aggregation (CsgA ThT Assay). The test is classed as biochemical. Particulars: for remaining activity at 25 µM: compound 25 μM; for remaining activity at 100 µM: compound 100 μM. How it is done:
In vitro ThioflavinT assay to determine effects of compounds on CsgA aggregation. To assess the effects of compounds on aggregation of E. coli CsgA, a cell-free assay was performed using purified CsgA and Thioflavin T. In the assay, histidine-tagged CsgA was over-expressed in E. coli NEB 3016 slyD::kan cells harboring a pET11d vector containing a C-terminal 6× His tag. Following growth in rich media, CsgA production is induced at an OD600 of approximately 1.0 by addition of 0.5 mM IPTG (isopropyl beta-D-1-thiogalactopyranoside) followed by incubation at 37° C. for 1-4 hours with shaking at 200-250 rpm. Bacteria were resuspended in 8 M guanidine hydrochloride in 50 mM potassium phosphate buffer, pH 7.3 and lysed by sonication on ice using three 20 second intervals. The resulting lysate was incubated on a platform rocker for 1 hour at room temperature. After centrifugation at 10,000×g for 20 minutes, the supernatant was further sonicated on ice for three 20 second intervals and then incubated with nickel-nitrilotriacetic acid resin (Sigma) at room temperature for 1 hour in a 50 mL conical tube on a platform rocker. The resin was washed and pelleted 5 times with 45 mL 8 M guanidine in 50 mM potassium phosphate buffer pH 7.3. The resin was further washed and pelleted two times with 8 M guanidine hydrochloride in 50 mM potassium phosphate buffer pH 7.3 containing 12.5 mM imidazole. Purified CsgA protein was eluted two times with 5 mL of 6-8 M guanidine hydrochloride in 50 mM potassium phosphate buffer, pH 7.3 containing 250 mM imidazole. The eluted protein was aliquoted with 150 μL per aliquot, snap frozen in liquid nitrogen, and stored at −80 C. In order to obtain monomeric CsgA, the purified CsgA protein was thawed and passed through two pre-chilled desalting columns (Zeba) to remove imidazole and guanidine. The buffer exchanged protein was loaded onto a 30-kDa centrifugal filter unit (Amicon) and spun for 30 minutes at 7500×g to remove dimers and other oligomers. Protein concentration was assessed by the NanoDrop technique (Thermo Scientific), as is familiar to one skilled in the art. The CsgA aggregation assay was conducted in 96-well black non-binding surface or white untreated microplates with 20-40 μM ThioflavinT, 50 mM potassium phosphate buffer pH 7.3, 1% DMSO, CsgA at 2-20 μM, and compounds at 3.125-200 uM. The vehicle control wells contain all components of the assay except test compounds and represent the level of CsgA aggregation in the absence of any inhibitor or accelerator. Plates were incubated at room temperature in a Tecan Nano F200 plate reader with excitation at 438 nm using a 439 nm filter with a bandwidth of 8 nm, and emission at 495 nm with a 490 nm filter with a bandwidth of 10 nm, or in a SpectraMax M5, SpectraMax M2 or SpectraMax® i3X (Molecular Devices, San Jose, Calif.) spectrophotometer with excitation at 438 nm and emission at 495 nm. During the assay, plates were shaken initially for 5 seconds and subsequently for 3 seconds prior to fluorescent readings. Readings were performed every 15 minutes for up to 1005 minutes. The effect of compounds on CsgA aggregation in the assay was determined with data from 0-17 hours. Fluorescence values for each compound with CsgA were first adjusted by subtracting the average fluorescence of the compound in the absence of CsgA or in the presence of CsgA and compound at time 0 or 15 minutes. The data were analyzed in several ways:
1. The adjusted ThT fluorescence values were normalized by dividing them by the average fluorescence in the vehicle control wells containing CsgA. The median normalized fluorescence from 6-6.5 hours or 8-9 hours with the compound was expressed as a percentage of the median fluorescence observed in vehicle controls over the same time period. Percent inhibition of CsgA aggregation by a compound was determined by subtracting the percent average fluorescence with the compound relative to the vehicle controls from 100%. […]

Setting [1] is: read-out: CsgA ThT Assay (2 μM CsgA) % Control Bmax 25 μM, activity range, class symbol, CsgA 2 μM, white plates.
Where [2] appears, read: read-out: CsgA ThT Assay (2 μM CsgA) % Control Bmax 25 μM, mean Bmax as percentage of DMSO control, CsgA 2 μM, white plates.
[3] abbreviates: read-out: CsgA ThT Assay (2 μM CsgA) % Control Bmax 100 μM, activity range, class symbol, CsgA 2 μM, white plates.
The mark [4] stands for this setting: read-out: CsgA ThT Assay (2 μM CsgA) % Control Bmax 100 μM, mean Bmax as percentage of DMSO control, CsgA 2 μM, white plates.
[5] abbreviates: read-out: CsgA ThT Assay (10 μM CsgA) % Control AUC at 1005 minutes, 25 μM (activity range), CsgA 10 μM, black plates, 1005 minutes, class symbol.
Setting [6] is: read-out: CsgA ThT Assay (10 μM CsgA) % Control AUC at 1005 minutes, 25 μM, mean AUC as % of DMSO control, CsgA 10 μM, black plates, 1005 minutes.
[7] abbreviates: read-out: CsgA ThT Assay (10 μM CsgA) % Control AUC at 1005 minutes, 100 μM (activity range), CsgA 10 μM, black plates, 1005 minutes, class symbol.
[8] abbreviates: read-out: CsgA ThT Assay (10 μM CsgA) % Control AUC at 1005 minutes, 100 μM, mean AUC as % of DMSO control, CsgA 10 μM, black plates, 1005 minutes.

T1 sequence (P28307 23-151): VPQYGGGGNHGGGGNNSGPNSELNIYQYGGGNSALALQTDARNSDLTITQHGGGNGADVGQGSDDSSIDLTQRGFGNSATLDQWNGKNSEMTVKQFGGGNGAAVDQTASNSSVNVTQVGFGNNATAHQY

Consider `CCCN1CC(C(=O)O)n2c(c(-c3cccc(C(F)(F)F)c3)c(Cc3cccc4ccccc34)c(NC(C)C)c2=O)S1(=O)=O` (centres unmarked) [Compound 149, 7-(isopropylamino)-8-(naphthalen-1-ylmethyl)-6-oxo-2-propyl-9-(3-(trifluoromethyl)phenyl)-3,4-dihydro-2H,6H-pyrido[1,2-e][1,2,5]thiadiazine-4-carboxylic acid 1,1-dioxide], for which the remaining activity at 25 µM was over 60% under setting [1] and 98% under setting [2]. For the same compound, the remaining activity at 100 µM by setting is: under setting [3], over 60%; under setting [4], 115%.

Regarding `O=C(O)C1CN(C(=O)OCc2ccccc2)c2c(-c3cccc(C(F)(F)F)c3)c(Cc3cccc4ccccc34)cc(=O)n21` (centres unmarked) [Compound 103, 1-((benzyloxy)carbonyl)-7-(naphthalen-1-ylmethyl)-5-oxo-8-(3-(trifluoromethyl)phenyl)-1,2,3,5-tetrahydroimidazo[1,2-a]pyridine-3-carboxylic acid], the remaining activity at 25 µM by setting is: under setting [5], over 60%; under setting [6], 95%. Besides, the remaining activity at 100 µM is, setting by setting: under setting [7], over 60%; under setting [8], 102%.

Consider `O=C(O)[C@H]1CNS(=O)(=O)c2c(-c3cccc(C(F)(F)F)c3)c(Cc3cccc4ccccc34)cc(=O)n21` (single isomer, unassigned) [Compound 009b], for which the remaining activity at 25 µM under setting [5] is over 60% and the remaining activity at 25 µM under setting [6] was 67%. The remaining activity at 100 µM reads like this: under setting [7], 31 to 60%; under setting [8], 37%.

For the compound `O=C(O)[C@@H]1CNS(=O)(=O)c2c(-c3cccc(C(F)(F)F)c3)c(Cc3cccc4ccccc34)cc(=O)n21` (single isomer, unassigned) [Compound 009a], the remaining activity at 25 µM is 31 to 60% under setting [5] and 46% under setting [6]. Also, the remaining activity at 100 µM reads like this: under setting [7], 11 to 31%; under setting [8], 17%.

As for `O=C(O)CCCCN1CC(C(=O)O)n2c(c(-c3cccc(C(F)(F)F)c3)c(Cc3cccc4ccccc34)cc2=O)S1(=O)=O` (centres unmarked) [Compound 039, 2-(4-carboxybutyl)-8-(naphthalen-1-ylmethyl)-6-oxo-9-(3-(trifluoromethyl)phenyl)-3,4-dihydro-2H,6H-pyrido[1,2-e][1,2,5]thiadiazine-4-carboxylic acid 1,1-dioxide], the remaining activity at 25 µM reads like this: under setting [5], over 60%; under setting [6], 92%. Moreover, the remaining activity at 100 µM by setting is: under setting [7], 11 to 31%; under setting [8], 24%.

Consider `CCCN1CC(C(=O)O)n2c(c(-c3cccc(C(F)(F)F)c3)c(Cc3cccc4ccccc34)c(OCc3ccccc3)c2=O)S1(=O)=O` (centres unmarked) [Compound 146, 7-(benzyloxy)-8-(naphthalen-1-ylmethyl)-6-oxo-2-propyl-9-(3-(trifluoromethyl)phenyl)-3,4-dihydro-2H,6H-pyrido[1,2-e][1,2,5]thiadiazine-4-carboxylic acid 1,1-dioxide], for which the remaining activity at 25 µM reads like this: under setting [1], over 60%; under setting [2], 113%. Further, the remaining activity at 100 µM by setting is: under setting [3], over 60%; under setting [4], 63%.

`CCCN1CC(C(=O)O)n2c(c(-c3cccc(C(F)(F)F)c3)c(Cc3cccc4ccccc34)c(OC(C)C)c2=O)S1(=O)=O` (centres unmarked) [Compound 148, 7-isopropoxy-8-(naphthalen-1-ylmethyl)-6-oxo-2-propyl-9-(3-(trifluoromethyl)phenyl)-3,4-dihydro-2H,6H-pyrido[1,2-e][1,2,5]thiadiazine-4-carboxylic acid 1,1-dioxide]: the remaining activity at 25 µM reads like this: under setting [1], over 60%; under setting [2], 79%. The remaining activity at 100 µM under setting [3] was over 60% and the remaining activity at 100 µM under setting [4] worked out at 113%.

Consider `CCc1c(Cc2cccc3ccccc23)c(-c2cccc(C(F)(F)F)c2)c2n(c1=O)C(C(=O)O)CN(C)S2(=O)=O` (centres unmarked) [Compound 076, 7-ethyl-2-methyl-8-(naphthalen-1-ylmethyl)-6-oxo-9-(3-(trifluoromethyl)phenyl)-3,4-dihydro-2H,6H-pyrido[1,2-e][1,2,5]thiadiazine-4-carboxylic acid 1,1-dioxide], for which the remaining activity at 25 µM by setting is: under setting [5], 11 to 31%; under setting [6], 17%. Also, the remaining activity at 100 µM under setting [7] was 11 to 31% and the remaining activity at 100 µM under setting [8] stood at 14%.

For the compound `Cn1cc(C(=O)O)n2c(=O)cc(Cc3cccc4ccccc34)c(-c3cccc(C(F)(F)F)c3)c12` [Compound 111, 1-methyl-7-(naphthalen-1-ylmethyl)-5-oxo-8-(3-(trifluoromethyl)phenyl)-1,5-dihydroimidazo[1,2-a]pyridine-3-carboxylic acid], the remaining activity at 25 µM is, setting by setting: under setting [5], over 60%; under setting [6], 98%. The remaining activity at 100 µM runs as follows: under setting [7], over 60%; under setting [8], 95%.

Consider `O=C(O)C1CN(Cc2ccccc2)c2c(-c3cccc(C(F)(F)F)c3)c(CN3CCCCC3)c(Cl)c(=O)n21` (centres unmarked) [Compound 218, 1-benzyl-6-chloro-5-oxo-7-(piperidin-1-ylmethyl)-8-(3-(trifluoromethyl)phenyl)-1,2,3,5-tetrahydroimidazo[1,2-a]pyridine-3-carboxylic acid], for which the remaining activity at 25 µM is, setting by setting: under setting [1], over 60%; under setting [2], 115%. Moreover, the remaining activity at 100 µM was over 60% under setting [3] and 109% under setting [4].

Take `CCCOc1c(Cc2cccc3ccccc23)c(-c2cccc(C(F)(F)F)c2)c2n(c1=O)C(C(=O)O)CN(CCC)S2(=O)=O` (centres unmarked) [Compound 147, 8-(naphthalen-1-ylmethyl)-6-oxo-7-propoxy-2-propyl-9-(3-(trifluoromethyl)phenyl)-3,4-dihydro-2H,6H-pyrido[1,2-e][1,2,5]thiadiazine-4-carboxylic acid 1,1-dioxide]: the remaining activity at 25 µM under setting [1] was over 60% and the remaining activity at 25 µM under setting [2] was found to be 101%. Besides, the remaining activity at 100 µM by setting is: under setting [3], over 60%; under setting [4], 139%.
